For data set [1], the system named is Murine myeloid leukemia cells WEHI-3. The experiment in a line: Antitumor test, life prolongation in mice inoculated with WEHI-3 cells (T/C). The note with it: oral once a day Day 1 to 4 and Day 7 to 11, ratio of survival days to control. The format is in vivo, Balb/C mouse. The source says: Murine myeloid leukemia cells WEHI-3 (1 to 3×10^6 cells) were intraperitoneally inoculated to a Balb/C mouse, and administration of a test compound was initiated on the next day. The day was Day 1 and subsequently the drug was orally administered once a day in Day 1 to 4 and in Day 7 to 11. Survival days after inoculation were observed, which were used to calculate the ratio of the survival days for the test coompound group to those for the control group (T/C, %). The ratio was used to evaluate a life prolongation effect.

For the next data set, the system named is A2780 cells. The data set is described as follows: Test for induction of differentiation in A2780 cells (ALP activity, ALPmin). The data set is classed as cell-based, human. Particulars: for minimal effective concentration: Homo sapiens, 72 h, A2780 cells, 3 days incubation, minimum concentration of the drug inducing increase of ALP activity. The gist of the method:
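A2780 cells seeded at 15,000/well, test compound added in serial dilution the next day. ALP reaction stopped with 3N NaOH and absorbance read at 405 nm; ALPmin is the lowest concentration raising ALP activity.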

Take `Nc1ccccc1NC(=O)c1ccc(CNC(=O)COc2cccnc2)cc1` [Example 46, N-(2-aminophenyl)-4-[N-(pyridin-3-yl)oxyacetylaminomethyl]benzamide]: the melting point is 154 to 155 °C. Besides, the T/C in data set [1] (Dose 32 μmol/kg) is on record as 141%. For the same compound, in the data set with A2780 cells, the differentiation-inducing activity result is given as “high” and the minimal effective concentration turned out to be 0.1 µM.
As for `Nc1ccccc1NC(=O)c1ccc(CNC(=O)OCc2cccnc2)cc1` [Example 48, N-(2-aminophenyl)-4-[N-(pyridin-3-yl)methoxycarbonylaminomethyl]benzamide], the T/C in data set [1] (Dose 130 μmol/kg) is 190%. For the same compound, in the data set with A2780 cells, the differentiation-inducing activity result was “high” and the minimal effective concentration is 0.1 µM.
Consider `Nc1ccccc1NC(=O)c1ccc(NC(=O)COCc2cccnc2)cc1` [Example 130, N-(2-aminophenyl)-4-[(pyridin-3-yl)methoxyacetylamino]benzamide], for which, in data set [1] (Dose 130 μmol/kg), the T/C was determined as 189%. The minimal effective concentration with A2780 cells is 0.03 µM.
Regarding `Nc1ccccc1NC(=O)c1ccc(NC(=O)COc2ccc([N+](=O)[O-])cc2)cc1` [Example 134, N-(2-aminophenyl)-4-[N-(4-nitrophenoxyacetyl)amino]benzamide], the melting point is 212 to 215 °C (dec.). Also, in the data set with A2780 cells, the minimal effective concentration was 3 µM.
The matching figures for `Cl.Nc1ccccc1NC(=O)c1ccc(-n2cc(COCc3ccccc3)oc2=O)cc1` [Example 138, N-(2-aminophenyl)-4-(5-benzyloxymethyl-1,3-oxazolin-2-on-3-yl)benzamide hydrochloride]: 181 to 183 °C and 1 µM.
Consider `Nc1ccccc1NC(=O)c1ccc(-n2cc(COCc3cccnc3)oc2=O)cc1` [Example 140, N-(2-aminophenyl)-4-[5-(pyridin-3-yl)methyloxymethyl-1,3-oxazolin-2-on-3-yl]benzamide], for which the melting point was 160 to 164 °C (dec.). In addition, in the data set with A2780 cells, the minimal effective concentration was found to be 0.3 µM.
The matching figures for `Nc1ccccc1NC(=O)c1ccc(-n2cc(COc3cccc([N+](=O)[O-])c3)oc2=O)cc1` [Example 141, N-(2-aminophenyl)-4-[5-(3-nitrophenoxy)methyl-1,3-oxazolin-2-on-3-yl]benzamide]: 230 °C (dec.) and 1 µM.
Regarding `Nc1ccccc1NC(=O)c1ccc(-n2cc(COCc3ccccn3)oc2=O)cc1` [Example 142, N-(2-aminophenyl)-4-[5-(pyridin-2-yl)methyloxymethyl-1,3-oxazolin-2-on-3-yl]benzamide], the melting point lay within 172 to 174 °C. The compound further had a minimal effective concentration with A2780 cells of 0.1 µM.
